Test results taken from patent US8859021B2, “Skin appearance through gene manipulation” (Sytheon, priority 2007, dated 2014).
Read-outs that look alike come from different tables or passages of the source.

Tested on: EpiDerm tissues
Settings: retinol 10 μg/ml, Sytenol A 5 μg/ml, 2 days, vs 0.1% DMSO control

## CC1=C(/C=C/C(C)=C/C=C/C(C)=C/CO)C(C)(C)CCC1 [Retinol, retinol]
  Fold Change, ACTN1 Alpha-actinin-1 (Alpha-actinin cytoskeletal isoform) (Table 8): +3.11 fold
  Fold Change, ACTN1 Alpha-actinin-1 (Alpha-actinin cytoskeletal isoform) (Table 9): +3.11 fold
  Fold Change, ACTN4 Alpha-actinin-4(F-actin cross-linking protein) (Table 8): +2.99 fold
  Fold Change, ACTN4 Alpha-actinin-4(F-actin cross-linking protein) (Table 9): +2.99 fold
  Fold Change, AFAP1L2 Actin filament-associated protein 1-like 2: +2.84 fold
  Fold Change, C16orf30 Claudin-like protein 24: −2.23 fold
  Fold Change, CDH1 Epithelia-cadherin precursor (E-cadherin) (Table 7): +9.39 fold
  Fold Change, CDH1 Epithelial-cadherin precursor (E-cadherin) E-Cad/CTF1 (Table 9): +9.39 fold
  Fold Change, CDH3 Cadherin-3-precursor (P-cadherin): +3.99 fold
  Fold Change, CDH19 Cadherin-19-precursor: −4.11 fold
  Fold Change, CDH24 Cadherin-24-precursor: +2.06 fold
  Fold Change, CDK5R1 Tau protein kinase II 23 kDa subunit (Cyclin-dependent kinase 5 activator 1 precursor (CDK5 activator 1)): +2.17 fold
  Fold Change, CLDN4 Claudin-4 (Clostridium perfringens enterotoxin receptor) (CPE-R): +3.63 fold
  Fold Change, CLDN5 Claudin-5 (Transmembrane protein deleted in VCFS): −3.66 fold
  Fold Change, CLDN6 Claudin-6 (Skullin 2): +2.59 fold
  Fold Change, CLDN7 Claudin-7 (CLDN-7): +25.30 fold
  Fold Change, CLDN11 Claudin-11 (Oligodendrocyte-specific protein): −2.86 fold
  Fold Change, CLDN12 Claudin-12: +3.73 fold
  Fold Change, CLDN16 Claudin-16 (Paracellin-1) (PCLN-1): +7.79 fold
  Fold Change, COL1A2 Collagen alpha-2 (I) chain precursor (Alpa-2 type I collagen): +3.31 fold
  Fold Change, COL3A1 Collagen alpha-1 (III) chain precursor: −2.36 fold
  Fold Change, COL4A6 Collagen alpha-6 (IV) chain precursor: +6.41 fold
  Fold Change, COL9A2 Collagen alpha-2 (IX) chain precursor: +5.56 fold
  Fold Change, COL9A3 Collagen alpha-3 (IX) chain precursor: +4.05 fold
  Fold Change, COL17A1 Collagen alpha-1 (XVII) chain precursor: +3.5 fold
  Fold Change, CRABP1 Cellular retinoic acid-binding protein 1: +2.83 fold
  Fold Change, CTHRC1 Collagen triple helix repeat-containing protein 1 precursor: −18.94 fold
  Fold Change, CTNNAL1 Alpha-catenin-related protein (ACRP) (Table 8): −2.60 fold
  Fold Change, CTNNAL1 Alpha-catenin-related protein (ACRP) (Table 9): −2.04 fold
  Fold Change, CYP26B1 Cytochrome P450 26B1 (Retinoic acid-metabolizing cytochrome): +1.87 fold
  Fold Change, Connective tissue growth factor precursor (Hypertrophic chondrocyte-specific protein 24): −4.61 fold
  Fold Change, DHRS9 NADP-dependent retinol dehydrogenase/reductase: +5.48 fold
  Fold Change, DSC1 Desmocollin-1-precursor (DG2/DG3): −7.49 fold
  Fold Change, DSC2 Desmocollin-2-precursor (Desmocollin-3): +3.71 fold
  Fold Change, DSG1 Desmoglein-1-precursor (DG1): −2.30 fold
  Fold Change, DSG2 Desmoglein-2-precursor: +13.03 fold
  Fold Change, DSG3 Desmoglein-3-precursor: +2.35 fold
  Fold Change, DSG4 Desmoglein-4-precursor: No effect
  Fold Change, ECM1 Extracellular matrix protein 1 precursor: No effect
  Fold Change, ECM2 Extracellular matrix protein 2 precursor: +4.98 fold
  Fold Change, ELA3B Elastase-3B precursor (Elastase IIIB): +5.89 fold
  Fold Change, F11R Junctional adhesion molecule 1 (JAM-1): +5.77 fold
  Fold Change, FLNB Actin-binding-like protein: +3.89 fold
  Fold Change, FLRT2 Fibronectin-like-domain-containing leucine-rich transmembrane protein 2: −2.67 fold
  Fold Change, FLRT3 Fibronectin-like-domain-containing leucine-rich transmembrane protein 3: +2.77 fold
  Fold Change, FNDC7 Fibronectin type III domain containing 7: No effect
  Fold Change, Fibroblast growth factor 9 (HBGF-9): −12.36 fold
  Fold Change, Fibroblast growth factor 23 precursor (FGF-23) (Tumor-derived hypophosphatemia-inducing factor): −9.78 fold
  Fold Change, Fibroblast growth factor receptor 2 precursor (FGFR-2): +6.50 fold
  Fold Change, Fibroblast growth factor-binding protein 1 precursor (FGF-BP1): +3.51 fold
  Fold Change, GSN Gelsolin precursor (Actin-depolymerizing factor) (ADF): +3.47 fold
  Fold Change, HAS2 Hyaluronan synthase 2: −3.48 fold
  Fold Change, HAS3 Hyaluronan synthase 3: +10.88 fold
  Fold Change, HS3ST1 Heparan sulfate 3-O-sulfotransferase 1 (Table 6): +8.65 fold
  Fold Change, HS3ST1 Heparan sulfate glucosamine 3-O-sulfotransferase 1 precursor (Heparan sulfate 3-O-sulfotransferase 1) (Table 3): +8.65 fold
  Fold Change, HS6ST1 Heparan sulfate 6-O-sulfotransferase 1: +2.26 fold
  Fold Change, HYAL1 Hyaluronidase-1-precursor: +2.16 fold
  Fold Change, Heparin-binding EGF-like growth factor precursor (HB-EGF): +3.89 fold
  Fold Change, IGSF1 Immunoglobulin superfamily, member 1 isoform 1: +3.11 fold
  Fold Change, IGSF3 Immunoglobulin superfamily, member 3 isoform 2: +5.81 fold
  Fold Change, ITG5 Integrin beta-5 precursor (Table 7): −2.42 fold
  Fold Change, ITGA6 Integrin alpha-6 precursor: No effect
  Fold Change, ITGA7 Integrin alpha-7 precursor: −5.53 fold
  Fold Change, ITGB2 Integrin beta-2-precursor: −3.54 fold
  Fold Change, ITGB4 Integrin beta-4-precursor (Table 3): +3.48 fold
  Fold Change, ITGB4 Integrin beta-4 precursor (Table 7): +3.48 fold
  Fold Change, ITGB5 Integrin beta-5 precursor (Table 3): −2.42 fold
  Fold Change, ITGB6 Integrin beta-6-precursor (Table 3): +7.49 fold
  Fold Change, ITGB6 Integrin beta-6-precursor (Table 7): +7.49 fold
  Fold Change, ITGB8 Integrin beta-8 precursor (Table 3): No effect
  Fold Change, ITGB8 Integrin beta-8 precursor (Table 7): No effect
  Fold Change, ITGBL1 Integrin beta-like 1: −4.38 fold
  Fold Change, Insulin growth factor-like family member 3 precursor (IGBP-3): −7.11 fold
  Fold Change, Insulin growth factor-like family member 4 precursor (IGBP-4): +5.97 fold
  Fold Change, Insulin-like growth factor-binding protein 6 precursor (IGBP-6): +5.89 fold
  Fold Change, JUP Catenin gamma (Junction plakoglobin) (Table 8): +2.43 fold
  Fold Change, JUP Catenin gamma (Table 9): +2.43 fold
  Fold Change, KIF1C Kinesin-like protein KIF1C: +2.47 fold
  Fold Change, KIF2A Kinesin-like protein KIF2A: −3.62 fold
  Fold Change, KIF4A Chromosome-associated kinesin KIF4A: +2.08 fold
  Fold Change, KIF13A Kinsein-like protein KIF13A: −2.27 fold
  Fold Change, KIF13B Kinsein-like protein KIF13B: +2.91 fold
  Fold Change, KIF17 Kinesin-like protein KIF17: +2.18 fold
  Fold Change, KIF26A Kinesin family member 26A: −2.93 fold
  Fold Change, KIFC2 Kinesin-like protein KIFC2: −2.45 fold
  Fold Change, KRT2 Keratin-2; Cytokeratin-2e (CK 2e): −8.37 fold
  Fold Change, KRT5 Keratin-5, Cytokeratin-5 (CK-5): +2.39 fold
  Fold Change, KRT7 Keratin-7; Cytokeratin-7 (CK-7): +8.75 fold
  Fold Change, KRT13 Keratin-13; Cytokeratin-13 (CK-13): +14.17 fold
  Fold Change, KRT15 Keratin-15; Cytokeratin-15 (CK-15): +5.48 fold
  Fold Change, KRT19 Keratin-19; Cytokeratin-19 (CK-19): +11.27 fold
  Fold Change, LAMA3 Laminin subunit alpha-3 precursor (Epiligrin 170 kDa subunit): +4.70 fold
  Fold Change, LAMC2 Laminin subunit gamma-2 precursor (Laminin B2t chain): +2.68 fold
  Fold Change, LRAT Lecithin retinol acyltransferase: +12.3 fold
  Fold Change, LRRC49 Tubulin polyglutamylase complex subunit 4 (PGs4): −2.83 fold
  Fold Change, MC1R, TUBB3 Tubulin beta-3-chain (Tubulin beta-III): +2.99 fold
  Fold Change, MMP9 Matrix metalloprotease-9-precursor: +8.35 fold
  Fold Change, MMP15 Matrix metalloprotease-15 precursor: +3.67 fold
  Fold Change, MMP21 Matrix metalloprotease-21 precursor: No effect
  Fold Change, MMP23A, MMP23B Matrix metalloprotease-23: −5.78 fold
  Fold Change, MMP26 Matrix metalloprotease-26-precursor (MMP-26): +4.31 fold
  Fold Change, MMP28 Matrix metalloprotease-28-precursor: +3.88 fold
  Fold Change, MYH14 Myosin-14: +3.38 fold
  Fold Change, MYL2 Myosin regulatory light chain 2: No effect
  Fold Change, MYO1F Myosin-lf (Myosin-le): +6.29 fold
  Fold Change, MYO6 Myosin-VI: No effect
  Fold Change, Mast/stem cell growth factor receptor precursor (SCFR) (Proto-oncogene tyrosine-protein kinase kit (c-kit)): −3.36 fold
  Fold Change, NDST4 N-heparan sulfate sulfotransferase 4: No effect
  Fold Change, NEIL2 DNA glycosylase/AP lyase Neil2: +12.79 fold
  Fold Change, NF-kappa-B-activating protein: −2.13 fold
  Fold Change, NGRN, TTLL13 Tubulin tyrosine ligase-like family, member 13: +11.61 fold
  Fold Change, NID2 Nidogen-2-precursor: −17.36 fold
  Fold Change, NT5C1B, RDH14 Retinol dehydrogenase 14 (Alcohol dehydrogenase PAN20): −5.33 fold
  Fold Change, Nuclear factor Kappa B p105 unit (NF-kappa-B) (DNA-binding factor KBF 1): −3.62 fold
  Fold Change, PARP2 Poly (ADP-ribose) polymerase 2: +2.08 fold
  Fold Change, PARP9 Poly (ADP-ribose) polymerase 9: +5.92 fold
  Fold Change, PARP12 Poly (ADP-ribose) polymerase 12: +4.69 fold
  Fold Change, PARP15 Poly (ADP-ribose) polymerase 15: +6.37 fold
  Fold Change, PCDH11X Procadherin-11: +3.18 fold
  Fold Change, PCDH18 Procadherin-18-precursor: −2.49 fold
  Fold Change, PCDH19 Procadherin-19-precursor: −3.41 fold
  Fold Change, PCDHB1 Procadherin-beta-1-precursor: No effect
  Fold Change, PCDHB2 Procadherin-beta-2-precursor: No effect
  Fold Change, PCDHB3 Procadherin-beta-3-precursor: −6.57 fold
  Fold Change, PCDHB4 Procadherin-beta-4-precursor: −2.62 fold
  Fold Change, PFN4 Profilin-4 (Profilin IV): +4.77 fold
  Fold Change, PI3 Elastase-specific inhibitor: +2.45 fold
  Fold Change, Protein Kinase B (RAC-alpha serine/threonine-protein kinase) (RAC-PK-alpha): −5.09 fold
  Fold Change, RARB Retinoic acid receptor beta-1: +5.63 fold
  Fold Change, RARG Retinoic acid receptor gama-1: +1.87 fold
  Fold Change, RARRES1 Retinoic acid receptor responder protein 1: +13.25 fold
  Fold Change, RBP1 Cellular Retinol-binding protein-I: +2.6 fold
  Fold Change, RBP2 Cellular Retinol-binding protein-II: No effect
  Fold Change, RBP7 Cellular retinoic acid-binding protein 4: No effect
  Fold Change, RETSAT All-trans-retinol 13,14-reductase precursor: −2.97 fold
  Fold Change, SELE E-selection precursor (Endothelial leukocyte adhesion molecule 1) (ELAM-1): −2.11 fold
  Fold Change, SERPINB1 Leukocyte elastase inhibitor: +3.80 fold
  Fold Change, SIR2-like protein1/NAD-dependent deacetylase sirtuin-1 (hSIRT1): −1.89 fold
  Fold Change, SIR2-like protein2/NAD-dependent deacetylase sirtuin-2: +1.52 fold
  Fold Change, SIR2-like protein7/NAD-dependent deacetylase sirtuin-7: +1.58 fold
  Fold Change, SRRM1 Serine/arginine repetitive matrix protein 1 (SR-related nuclear matrix protein 160 kDa) (SRm160): +3.57 fold
  Fold Change, TBCEL Tubulin-specific chaperone cofactor E-like protein (EL): +2.20 fold
  Fold Change, TTBK1 Tau-tubulin kinase 1: −7.99 fold
  Fold Change, TTLL1 Tubulin polyglutamylase complex subunit 3 (PGs3): +1.92 fold
  Fold Change, TUBB2B Tubulin beta-2B chain: −2.56 fold
  Laminins gene regulation (in words): up-regulate
Listed as retinol
  Fold Change, ITGA7 Integrin alpha-7 precursor: significant down-regulatory effect
  Fold Change, ITGB5 Integrin beta-5 precursor (Table 3): significant down-regulatory effect
  Fold Change, ITGBL1 Integrin beta-like 1: significant down-regulatory effect
  Fold Change, NID2 Nidogen-2-precursor: significant down-regulation
